Active and inactive are the calls of the source.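 The calls were made as follows: active = IC50 below 20 µM; inactive = the rest.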
Biological target: CRF-binding protein / CRF-R2 receptor complex (human)
Experiment: inhibition of CRF-induced CRF-R2.BP calcium signal – cell-based, 384-well, HEK293, calcium flux, powder samples, SAR follow-up (AID 651649)
Settings: Fluo4

Row | Compound | IC50
1 | CC(C)(C)c1cc(C(=O)NNC(=O)Nc2cccc(Cl)c2)n(Cc2ccccc2)n1 | 2.54 µM
2 | C=CCOc1ccc(/C=C2\SC(=S)N(NS(=O)(=O)c3ccccc3)C2=O)cc1 | 4.81 µM
3 | NC(=O)c1ccc(NCc2ccco2)c([N+](=O)[O-])c1 | 1.35 µM
4 | O=c1oc2ccc3ccccc3c2cc1-c1nnc(-c2ccccc2)o1 | 0.636 µM
5 | CC(C)Cn1c(SCC(=O)N2CCc3ccccc3C2)nc2cc(Cl)ccc2c1=O | 0.946 µM
6 | Brc1ccccc1-c1nnc(CSc2nnnn2-c2ccccc2)o1 | 0.632 µM
7 | Cc1ccccc1Cn1ccc(NC(=O)c2cc3ncc(Br)cn3n2)n1 | > 40 µM (inactive)
8 | Cn1c(COc2ccccc2)nnc1SCC(=O)c1cccc([N+](=O)[O-])c1 | > 40 µM (inactive)
9 | COc1cccc2cc(-c3nnc(-c4ccccc4)o3)c(=O)oc12 | < 0.125 µM
10 | Cc1ccc(-n2nnnc2SCc2nnc(-c3ccccc3Br)o2)c(C)c1 | 6.04 µM
11 | CC(=O)NC(Cc1ccc(C)cc1)C(=O)NC1CCN(c2ncccc2[N+](=O)[O-])CC1 (stereo not drawn) | 2.76 µM
12 | O=C(COc1cc(Cl)ccc1Cl)N1CCNC1=O | 5.85 µM
13 | COc1ccc([N+](=O)[O-])cc1NC(=O)c1ccccc1SC | 0.214 µM
14 | Cc1ccccc1-c1cc2nc(-c3ccc([N+](=O)[O-])cc3)cc(=O)n2[nH]1 | > 40 µM (inactive)
15 | Cc1ccc(S(=O)(=O)N(CC(=O)Nc2ccccc2C(=O)O)c2ccc(Cl)cc2)cc1 | 3.22 µM
16 | COCCNc1nc2c(S(=O)(=O)c3cc(C)ccc3C)nnn2c2ccccc12 | > 40 µM (inactive)
17 | COc1cccc(NC(=S)NC(Cc2ccccc2)c2ccccc2)c1 (stereo not drawn) | 1.04 µM
18 | COc1ccc(C(=O)COC(=O)c2cccnc2SC)cc1 | > 20 µM (inactive)
19 | COC(=O)c1ccc(CSc2nc3ccccc3c(=O)n2-c2ccccc2)o1 | 5.03 µM
20 | O=C(COc1ccc2ccccc2c1)Nc1cccc(C(=O)Nc2ccccc2C(=O)O)c1 | 7.54 µM
21 | COc1cccc(C2CC(c3cccs3)=NN2C(=O)c2ccco2)c1O (stereo not drawn) | 1.54 µM
22 | Cc1ccc(NC(=O)c2ccccc2NS(=O)(=O)c2ccc(F)cc2)cc1S(=O)(=O)N1CCCCC1 | > 40 µM (inactive)
23 | Cc1ccc2cccc(Oc3ncnc4scc(-c5ccccc5)c34)c2n1 | 8.73 µM
24 | CCOc1ccc(Cl)cc1S(=O)(=O)n1nnc2ccccc21 | 1.17 µM
25 | CC1CC(C)CN(C(=O)CSc2nc(Cc3cccs3)nc3ccccc23)C1 (stereo not drawn) | 2.38 µM
26 | O=C(O)c1ccc(COc2ccccc2C=C2C(=O)c3ccccc3C2=O)cc1 | 4.52 µM
27 | COc1ccc(Oc2ccc(C(F)(F)F)cc2NC(=O)c2ccc(OC)cc2)cc1 | > 40 µM (inactive)
28 | Cc1nc2nc(SCC(=O)c3cccc([N+](=O)[O-])c3)[nH]c2cc1Br | inactive
